These molecules were tested against T1, Inhibitor of nuclear factor kappa-B kinase subunit beta (Homo sapiens, UniProt O14920) (assay: Inhibition of IKKbeta (unknown origin) assessed as substrate phosphorylation using IkappaBalpha as substrate incubated for 1 hr in presence of ATP by chip-based fluorescence assay).
T1 sequence (O14920 whole entry): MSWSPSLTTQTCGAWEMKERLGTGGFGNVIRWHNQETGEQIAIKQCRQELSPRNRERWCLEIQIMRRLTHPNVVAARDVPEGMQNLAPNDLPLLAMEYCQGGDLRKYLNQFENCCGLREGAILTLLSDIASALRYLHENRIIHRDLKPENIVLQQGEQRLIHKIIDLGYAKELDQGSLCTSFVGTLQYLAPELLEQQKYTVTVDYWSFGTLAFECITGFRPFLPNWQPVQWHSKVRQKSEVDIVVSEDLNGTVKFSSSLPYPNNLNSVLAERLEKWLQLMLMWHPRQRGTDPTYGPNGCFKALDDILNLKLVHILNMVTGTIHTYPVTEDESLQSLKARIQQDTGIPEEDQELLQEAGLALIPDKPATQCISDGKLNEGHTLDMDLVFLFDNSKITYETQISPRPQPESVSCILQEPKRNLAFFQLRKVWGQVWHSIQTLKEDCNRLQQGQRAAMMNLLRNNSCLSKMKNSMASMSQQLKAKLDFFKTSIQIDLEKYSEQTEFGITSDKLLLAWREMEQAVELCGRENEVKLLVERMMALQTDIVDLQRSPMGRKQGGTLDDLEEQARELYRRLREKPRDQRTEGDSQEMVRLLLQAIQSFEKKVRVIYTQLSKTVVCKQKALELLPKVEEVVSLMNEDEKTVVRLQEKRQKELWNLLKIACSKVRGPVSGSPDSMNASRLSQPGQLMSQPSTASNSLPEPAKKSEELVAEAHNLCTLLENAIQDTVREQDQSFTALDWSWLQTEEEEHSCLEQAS

IC50 [µM]	SMILES
6.46	O=C(c1ccc(Nc2nccc(-c3cc4ccccc4s3)n2)cc1)N1CCC(N2CCCC2)CC1
2.18	O=C1C=C2C[C@]3(O)COc4c(ccc(O)c4O)C3=C2C=C1O
5.4	O=C(O)C1=CC(=C(c2ccc(O)c(C(=O)O)c2)c2ccc(O)c(C(=O)O)c2)C=CC1=O [AURINTRICARBOXYLIC ACID]
3.89	COc1ccc(-c2cc(=O)c3c(O)cc(O[C@@H]4O[C@H](CO[C@@H]5O[C@@H](C)[C@H](O)[C@@H](O)[C@H]5O)[C@@H](O)[C@H](O)[C@H]4O)cc3o2)cc1O [DIOSMIN]
1.98	O=c1oc2c(O)c(O)cc3c(=O)oc4c(O)c(O)cc1c4c23 [ELLAGIC ACID]
